The record followed here is the RepoRT retention time repository.

The series can be described thus: HILIC, Waters ACQUITY UPLC BEH Amide, 100 × 2.1 mm, 1.7 µm; A: water + 0.125% formic acid + 10 mM ammonium formate; B: 5% water + 95% acetonitrile + 0.125% formic acid + 10 mM ammonium formate; gradient (min/%B) 0/100 2/100 7.7/70 9.5/40 10.25/30 12.75/100 17/100. Conditions: stereoisomer not certain.
`Cc1cn(C2C=CC(CO)O2)c(=O)[nH]c1=O` (configuration not stated) [Stavudine]: the LC retention time was 1.62 min.
In the case of `CCCCCCCCCCCCCCCCCC(=O)OC(CC(=O)[O-])C[N+](C)(C)C` [Stearoyl-L-carnitine], the LC retention time was determined as 2.96 min.
With `C=Cc1ccccc1` [Styrene], the LC retention time was 8.74 min.
As for `O=C(O)CCC(=O)O` [Succinic acid], the LC retention time was 4.46 min.
Regarding `OCC1OC(OC2(CO)OC(CO)C(O)C2O)C(O)C(O)C1O` (configuration not stated) [Sucrose], the LC retention time was determined as 8.05 min.
For `O=C(O)c1cc(N=Nc2ccc(S(=O)(=O)Nc3ccccn3)cc2)ccc1O` [Sulfasalazine], the LC retention time came out at 2.01 min.
Regarding `CS(=O)CCCCN=C=S` (configuration not stated) [Sulforaphane], the LC retention time worked out at 1.14 min.
Then `CNS(=O)(=O)Cc1ccc2[nH]cc(CCN(C)C)c2c1` [Sumatriptan], with 4.31 min; and `CNCC(O)c1ccc(O)cc1` (configuration not stated) [Synephrine], with 5.67 min.
As for `COc1cc(-c2oc3cc(O)cc(O)c3c(=O)c2OC2OC(CO)C(O)C(O)C2O)cc(OC)c1O` (configuration not stated) [Syringetin-3-O-glucoside], the LC retention time is 4.32 min.
With `COc1cc(C(=O)O)cc(OC)c1O` [Syringic acid], the LC retention time is 1.35 min.
Then `O=S(=O)(O)CCNC(CO)(CO)CO` [TES], with 7.7 min; and `Nc1c2c(nc3ccccc13)CCCC2` [Tacrine], with 3.86 min; and `C=CCC1C=C(C)CC(C)CC(OC)C2OC(O)(C(=O)C(=O)N3CCCCC3C(=O)OC(C(C)=CC3CCC(O)C(OC)C3)C(C)C(O)CC1=O)C(C)CC2OC` (configuration not stated) [Tacrolimus], with 1.07 min.
Then `CN1CC(=O)N2C(Cc3c([nH]c4ccccc34)C2c2ccc3c(c2)OCO3)C1=O` (configuration not stated) [Taldalafil], with 1.19 min.
`CN=C(N)NCCCC(N)C(=O)O` (configuration not stated) [Targinine]: the LC retention time is 9.22 min.
Consider `NCCS(=O)(=O)O` [Taurine], for which the LC retention time was 7.85 min.
For the compound `CC(CCC(=O)NCCS(=O)(=O)O)C1CCC2C3C(O)CC4CC(O)CCC4(C)C3CC(O)C12C` (configuration not stated) [Taurocholic acid], the LC retention time was determined as 6.12 min.
As to `O=C1c2c(O)cc(O)cc2OC(c2ccc(O)c(O)c2)C1O` (configuration not stated) [Taxifolin], the LC retention time amounted to 1.78 min.
`O=c1[nH]c(=O)n(C2CCCO2)cc1F` (configuration not stated) [Tegafur]: the LC retention time was 1.22 min.
Take `CCCCCN=C(N)NN=Cc1c[nH]c2ccc(OC)cc12` [Tegaserod]: the LC retention time is 2.84 min.
For `CCCc1nc2c(C)cc(-c3nc4ccccc4n3C)cc2n1Cc1ccc(-c2ccccc2C(=O)O)cc1` [Telmisartan], the LC retention time amounted to 1.25 min.
Then `CN1C(=O)C(O)N=C(c2ccccc2)c2cc(Cl)ccc21` (configuration not stated) [Temazepam], with 1.15 min.
Consider `Cn1nnc2c(C(N)=O)ncn2c1=O` [Temozolomide], for which the LC retention time was 1.33 min.
Turning to `COc1cc2nc(N3CCN(C(=O)C4CCCO4)CC3)nc(N)c2cc1OC` (configuration not stated) [Terazosin], the LC retention time was 4.66 min.
Consider `CN(CC=CC#CC(C)(C)C)Cc1cccc2ccccc12` [Terbinafine], for which the LC retention time came out at 1.33 min.
As for `CC12CCC(=O)C=C1CCC1C2CCC2(C)C(O)CCC12` (configuration not stated) [Testosterone], the LC retention time is 1.05 min.
As for `CCNC(=O)CCC(N)C(=O)O` (configuration not stated) [Theanine], the LC retention time was determined as 7.66 min.
As for `Cn1c(=O)c2[nH]cnc2n(C)c1=O` [Theophylline], the figure is 1.54 min; as for `O=C(O)C1CSCN1` (configuration not stated) [Thiazolidine-4-carboxylic acid], 6.92 min.
As for `N=c1ccc2nc3ccc(N)cc3sc-2c1` [Thionin], the LC retention time came out at 5.23 min.
On to `CC(NC(=O)C(N)C(C)O)C(=O)O` (configuration not stated) [Thr-Ala], for which the LC retention time is 8.56 min.
With `OCC(O)C(O)CO` (configuration not stated) [Threitol], the LC retention time turned out to be 1.56 min.
As for `Cc1cn(C2CC(O)C(CO)O2)c(=O)[nH]c1=O` (configuration not stated) [Thymidine], the figure is 2.57 min.
Consider `Cc1ccc(C(C)C)c(O)c1` [Thymol], for which the LC retention time was determined as 1.53 min.
As for `Cc1ccsc1C(=CCCN1CCCC(C(=O)O)C1)c1sccc1C` (configuration not stated) [Tiagabine], the LC retention time turned out to be 3.94 min.
As for `C#CC1(O)CCC2C3C(C)CC4=C(CCC(=O)C4)C3CCC21C` (configuration not stated) [Tibolone], the figure is 1 min; as for `Clc1ccccc1CN1CCc2sccc2C1` [Ticlopidine], 1.12 min.
`CCS(=O)(=O)CCn1c([N+](=O)[O-])cnc1C` [Tinidazole]: the LC retention time is 1.04 min.
With `Cc1cccc(C)c1NC(=O)C(C)N` (configuration not stated) [Tocainide], the LC retention time stood at 4.97 min.
Take `Cc1ccc(O)c(C(CCN(C(C)C)C(C)C)c2ccccc2)c1` (configuration not stated) [Tolterodine]: the LC retention time was 2.13 min.
`CCCc1c(OCCCCc2nn[nH]n2)ccc(C(C)=O)c1O` [Tomelukast]: the LC retention time came out at 1.04 min.
Take `CC1(C)OC2COC3(COS(N)(=O)=O)OC(C)(C)OC3C2O1` (configuration not stated) [Topiramate]: the LC retention time turned out to be 1.1 min.
Regarding `CCC1(O)C(=O)OCc2c1cc1n(c2=O)Cc2cc3c(CN(C)C)c(O)ccc3nc2-1` (configuration not stated) [Topotecan], the LC retention time turned out to be 5.72 min.
In the case of `O=C(c1ccccc1)c1ccc2n1CCC2C(=O)O` (configuration not stated) [Toradol], the LC retention time stood at 1.29 min.
For the compound `Cc1cccc(Nc2ccncc2S(=O)(=O)NC(=O)NC(C)C)c1` [Torasemide], the LC retention time stood at 1.45 min.
Regarding `CN(C)CCOc1ccc(C(=C(CCCl)c2ccccc2)c2ccccc2)cc1` [Toremifene], the LC retention time came to 1.89 min.
With `NC1CCN(c2nc3c(cc2F)c(=O)c(C(=O)O)cn3-c2ccc(F)cc2F)C1` (configuration not stated) [Tosufloxacin], the LC retention time is 4.87 min.
For the compound `COc1cccc(C2(O)CCCCC2CN(C)C)c1` (configuration not stated) [Tramadol], the LC retention time worked out at 2.52 min.
Then `COc1ccc(C=CC(=O)Nc2ccccc2C(=O)O)cc1OC` [Tranilast], with 1.26 min; and `O=c1n(CCCN2CCN(c3cccc(Cl)c3)CC2)nc2ccccn12` [Trazodone], with 2.38 min; and `O=P(O)(O)OCC1OC(OC2OC(CO)C(O)C(O)C2O)C(O)C(O)C1O` (configuration not stated) [Trehalose-6-phosphate], with 9.72 min.
Regarding `O=C(OC1C(Oc2ccccc2COC(=O)C2(O)C=CCCC2=O)OC(CO)C(O)C1O)c1ccccc1` (configuration not stated) [Tremulacin], the LC retention time was 1.51 min.
Consider `Cc1nnc2n1-c1ccc(Cl)cc1C(c1ccccc1Cl)=NC2` [Triazolam], for which the LC retention time was 1.3 min.
Consider `CSc1nc2cc(Oc3cccc(Cl)c3Cl)c(Cl)cc2[nH]1` [Triclabendazole], for which the LC retention time came to 1.01 min.
As to `CN1CCN(CCCN2c3ccccc3Sc3ccc(C(F)(F)F)cc32)CC1` [Trifluoperazine], the LC retention time came to 2.15 min.
On to `NC(=O)N1c2ccccc2CC(=O)c2ccccc21` [Trileptal], for which the LC retention time is 1.13 min.
For the compound `CCC(COC(=O)c1cc(OC)c(OC)c(OC)c1)(c1ccccc1)N(C)C` (configuration not stated) [Trimebutine], the LC retention time worked out at 1.47 min.
Then `CC(CN(C)C)CN1c2ccccc2CCc2ccccc21` (configuration not stated) [Trimipramine], with 2.25 min; and `CN(C)CCN(Cc1ccccc1)c1ccccn1` [Tripelennamine], with 1.98 min; and `CC(C)C12OC1C1OC13C1(C)CCC4=C(COC4=O)C1CC1OC13C2O` (configuration not stated) [Triptolide], with 1.02 min.
With `CN1C2CCC1CC(OC(=O)c1c[nH]c3ccccc13)C2` (configuration not stated) [Tropisetron], the LC retention time was 3.81 min.
`COc1cc(C(=O)NC2CCCNC2)cc(OC)c1OC` (configuration not stated) [Troxipide]: the LC retention time amounted to 5.04 min.
`NCCc1c[nH]c2ccccc12` [Tryptamine]: the LC retention time was 6.92 min.
With `c1ccc2c3c([nH]c2c1)CNCC3` [Tryptoline], the LC retention time stood at 4.9 min.
As for `NC(Cc1c[nH]c2ccccc12)C(=O)O` (configuration not stated) [Tryptophan], the figure is 6.92 min.
As for `NC(=O)C(N)Cc1c[nH]c2ccccc12` (configuration not stated) [Tryptophanamide], the LC retention time stood at 5.91 min.
As for `NC(Cc1ccc(O)cc1)C(=O)NC(Cc1ccc(O)cc1)C(=O)NC(Cc1ccc(O)cc1)C(=O)O` (stereo not drawn) [Tyr-Tyr-Tyr], the figure is 7.09 min; as for `NC(Cc1ccc(O)cc1)C(=O)NC(Cc1ccc(O)cc1)C(=O)O` (configuration not stated) [Tyr-Tyr], 7.38 min; as for `NCCc1ccc(O)cc1` [Tyramine], 5.58 min.
Regarding `NC(Cc1ccc(O)cc1)C(=O)O` (configuration not stated) [Tyrosine], the LC retention time came out at 7.61 min.
Take `CN1CCc2cc(Cl)c(O)cc2C(c2ccccc2)C1` (configuration not stated) [UNII-UGT5535REQ]: the LC retention time came out at 2.89 min.
As for `O=c1cc[nH]c(=O)[nH]1` [Uracil], the figure is 2.4 min.
As for `COc1ccccc1N1CCN(CCCNc2cc(=O)n(C)c(=O)n2C)CC1` [Urapidil], the figure is 4.58 min.
Then `NC(=O)NC(CCC(=O)O)C(=O)O` (configuration not stated) [Ureidoglutaric acid], with 7.8 min; and `O=c1ccn(C2OC(COP(=O)(O)O)C(O)C2O)c(=O)[nH]1` (configuration not stated) [Uridine 5'-monophosphate], with 8.97 min.
Regarding `O=c1ccn(C2OC(CO)C(O)C2O)c(=O)[nH]1` (configuration not stated) [Uridine], the LC retention time stood at 4.72 min.
For `O=C(O)C=Cc1cnc[nH]1` [Urocanic acid], the LC retention time was found to be 3.69 min.
As for `CC(C)C(N)C(=O)OCCOCn1cnc2c(=O)[nH]c(N)nc21` (configuration not stated) [Valaciclovir], the LC retention time is 6.83 min.
Then `Cc1onc(-c2ccccc2)c1-c1ccc(S(N)(=O)=O)cc1` [Valdecoxib], with 1.01 min; and `CC(C)C(N)C(=O)O` (configuration not stated) [Valine], with 7.24 min; and `CCCCC(=O)N(Cc1ccc(-c2ccccc2-c2nn[nH]n2)cc1)C(C(=O)O)C(C)C` (configuration not stated) [Valsartan], with 1.69 min.
